For 13 compounds, inhibition and IC50 results are on record in ChEMBL document CHEMBL4184166 (Bioorg Med Chem Lett, 2017).

One data set concerns the target T1, CYP1B1 (Homo sapiens, UniProt Q16678).
T1 sequence (Q16678 whole entry): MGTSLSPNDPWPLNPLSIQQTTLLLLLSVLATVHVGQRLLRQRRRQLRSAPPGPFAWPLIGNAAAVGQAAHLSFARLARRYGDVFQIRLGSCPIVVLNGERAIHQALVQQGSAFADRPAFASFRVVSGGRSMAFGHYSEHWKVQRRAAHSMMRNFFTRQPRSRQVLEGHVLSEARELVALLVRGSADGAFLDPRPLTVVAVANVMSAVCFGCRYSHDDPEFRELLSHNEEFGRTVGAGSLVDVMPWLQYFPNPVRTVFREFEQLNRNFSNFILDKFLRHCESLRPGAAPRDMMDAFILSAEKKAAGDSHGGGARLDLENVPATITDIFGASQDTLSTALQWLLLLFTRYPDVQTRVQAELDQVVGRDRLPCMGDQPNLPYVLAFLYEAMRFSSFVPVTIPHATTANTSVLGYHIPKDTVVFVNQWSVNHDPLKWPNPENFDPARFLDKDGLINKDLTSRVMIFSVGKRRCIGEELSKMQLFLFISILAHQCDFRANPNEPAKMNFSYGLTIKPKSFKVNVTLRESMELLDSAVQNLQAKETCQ
Kind of data set: Inhibition of human CYP1B1 expressed in yeast microsomal membranes at 10 uM using 7-ethoxyresorufin as substrate by fluorescence assay relative to control. It counts as cell membranes. Conditions: probe 7-ethoxyresorufin.

Data set [1] addresses T2, Cytochrome P450 1A2 (Homo sapiens, UniProt P05177).
T2 sequence (P05177 whole entry): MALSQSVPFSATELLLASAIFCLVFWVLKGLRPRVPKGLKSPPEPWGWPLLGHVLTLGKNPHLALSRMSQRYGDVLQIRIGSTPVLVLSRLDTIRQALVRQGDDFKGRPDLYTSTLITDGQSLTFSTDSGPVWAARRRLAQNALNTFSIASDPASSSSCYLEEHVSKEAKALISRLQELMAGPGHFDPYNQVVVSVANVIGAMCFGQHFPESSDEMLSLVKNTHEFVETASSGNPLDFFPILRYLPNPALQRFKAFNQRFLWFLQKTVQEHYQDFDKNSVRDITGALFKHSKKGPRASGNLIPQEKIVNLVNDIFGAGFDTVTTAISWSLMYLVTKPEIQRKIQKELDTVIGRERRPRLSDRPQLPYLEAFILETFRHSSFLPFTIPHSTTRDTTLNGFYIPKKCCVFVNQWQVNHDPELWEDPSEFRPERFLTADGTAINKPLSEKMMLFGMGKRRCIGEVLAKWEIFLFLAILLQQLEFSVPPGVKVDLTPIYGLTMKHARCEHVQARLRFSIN
Description: Inhibition of human CYP1A2 expressed in HEK293 cells by fluorescence assay. It counts as ADME, cell-based.

Data set [2] concerns the target T3, Cytochrome P450 2D6 (Homo sapiens, UniProt P10635). Description: Inhibition of recombinant human CYP2D6 expressed in yeast microsomal membranes by fluorescence assay. The format is ADME, cell membranes, Microsomal Membrane.
The target in data set [3] is T4, Cytochrome P450 1B1 (Homo sapiens, UniProt Q16678).
T4 sequence (Q16678 whole entry): T1 sequence (Q16678 whole entry)
Kind of data set: Inhibition of human CYP1B1 expressed in yeast microsomal membranes using 7-ethoxyresorufin as substrate by fluorescence assay. It counts as cell membranes.

For data set [4], the target named is T2, Cytochrome P450 1A2. Description: Inhibition of recombinant human CYP1A2 expressed in yeast microsomal membranes by fluorescence assay. The format is ADME, cell membranes, Microsomal Membrane.
For data set [5], the target named is T3, Cytochrome P450 2D6. Kind of data set: Inhibition of human CYP2D6 expressed in HEK293 cells by fluorescence assay. The format is ADME, cell-based.
The target in data set [6] is T5, Cytochrome P450 1A1 (Homo sapiens, UniProt P04798).
T5 sequence (P04798 whole entry): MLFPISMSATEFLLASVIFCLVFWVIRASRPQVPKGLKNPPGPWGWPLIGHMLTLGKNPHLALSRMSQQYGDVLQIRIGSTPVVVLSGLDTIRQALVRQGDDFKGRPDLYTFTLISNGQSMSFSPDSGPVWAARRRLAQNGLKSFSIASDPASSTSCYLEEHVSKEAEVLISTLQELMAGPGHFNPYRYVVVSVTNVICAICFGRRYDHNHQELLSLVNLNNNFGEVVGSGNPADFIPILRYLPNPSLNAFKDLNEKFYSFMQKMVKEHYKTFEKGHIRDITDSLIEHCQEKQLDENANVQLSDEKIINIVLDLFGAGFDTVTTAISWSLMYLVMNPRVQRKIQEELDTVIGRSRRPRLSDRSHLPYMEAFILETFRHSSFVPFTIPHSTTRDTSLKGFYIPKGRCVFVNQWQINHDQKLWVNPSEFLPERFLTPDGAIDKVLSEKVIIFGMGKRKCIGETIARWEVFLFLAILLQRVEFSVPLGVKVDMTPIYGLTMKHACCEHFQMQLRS
Kind of data set: Inhibition of human CYP1A expressed in HEK293 cells by fluorescence assay. The format is ADME, cell-based.

Data set [7] addresses T4, Cytochrome P450 1B1. Kind of data set: Inhibition of human CYP1B1 expressed in HEK293 cells by fluorescence assay. It counts as cell-based.
Data set [8] addresses T6, Cytochrome P450 3A4 (Homo sapiens, UniProt P08684). Description: Inhibition of recombinant human CYP3A4 expressed in yeast microsomal membranes by fluorescence assay. It counts as ADME, cell membranes, Microsomal Membrane.
The target in the next data set is T7, CYP1A1 (Homo sapiens, UniProt P04798).
T7 sequence (P04798 whole entry): T5 sequence (P04798 whole entry)
Kind of data set: Inhibition of recombinant human CYP1A1 expressed in yeast microsomal membranes at 10 uM by fluorescence assay relative to control. The format is cell membranes.

Data set [9] concerns the target T5, Cytochrome P450 1A1. Description: Inhibition of recombinant human CYP1A1 expressed in yeast microsomal membranes by fluorescence assay. The format is cell membranes.
Data set [10] deals with T6, Cytochrome P450 3A4. Description: Inhibition of human CYP3A4 expressed in HEK293 cells by fluorescence assay. The format is ADME, cell-based.

T3 sequence (P10635 whole entry): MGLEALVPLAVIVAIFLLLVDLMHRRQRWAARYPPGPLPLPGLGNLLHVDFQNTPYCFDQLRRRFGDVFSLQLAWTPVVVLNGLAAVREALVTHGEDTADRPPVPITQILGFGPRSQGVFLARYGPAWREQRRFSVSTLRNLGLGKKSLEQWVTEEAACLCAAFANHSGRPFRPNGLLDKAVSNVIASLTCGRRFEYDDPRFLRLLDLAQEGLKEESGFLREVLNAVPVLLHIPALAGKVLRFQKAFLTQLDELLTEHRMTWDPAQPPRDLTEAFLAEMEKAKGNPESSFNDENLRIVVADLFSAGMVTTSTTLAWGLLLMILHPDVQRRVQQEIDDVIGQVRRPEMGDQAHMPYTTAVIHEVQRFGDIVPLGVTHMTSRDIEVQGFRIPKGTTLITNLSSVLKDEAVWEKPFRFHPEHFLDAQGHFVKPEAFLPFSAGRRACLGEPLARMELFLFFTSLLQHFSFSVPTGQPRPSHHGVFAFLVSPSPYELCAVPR
T6 sequence (P08684 whole entry): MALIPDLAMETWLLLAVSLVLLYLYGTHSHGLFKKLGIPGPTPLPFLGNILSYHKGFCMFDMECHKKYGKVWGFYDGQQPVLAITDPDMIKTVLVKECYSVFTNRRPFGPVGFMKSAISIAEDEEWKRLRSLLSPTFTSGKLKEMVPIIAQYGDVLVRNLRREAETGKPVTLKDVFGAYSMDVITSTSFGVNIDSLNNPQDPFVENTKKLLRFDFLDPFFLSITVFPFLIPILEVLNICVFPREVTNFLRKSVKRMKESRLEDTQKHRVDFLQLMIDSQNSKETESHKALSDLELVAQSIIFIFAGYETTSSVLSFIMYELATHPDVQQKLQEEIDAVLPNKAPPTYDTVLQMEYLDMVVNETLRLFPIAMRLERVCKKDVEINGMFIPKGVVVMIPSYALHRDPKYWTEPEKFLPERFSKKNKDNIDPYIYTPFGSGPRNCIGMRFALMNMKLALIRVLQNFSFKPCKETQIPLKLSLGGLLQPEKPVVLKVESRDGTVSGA

In general, inhibition refers to the relative decrease from the control value, in per cent. Broadly, the IC50 is the concentration that gives 50% inhibition. As for `CC(C)=CCc1cc(C2CC(=O)c3ccc(O)c(CC=C(C)C)c3O2)ccc1O` (configuration not stated), the inhibition at 10 µM was determined as 17.7% at CYP1B1 and 67.2% on CYP1A1. The IC50 on Cytochrome P450 1A2 [1], on Cytochrome P450 2D6 [2], against Cytochrome P450 1B1 [3], on Cytochrome P450 1A2 [4], at Cytochrome P450 2D6 [5] and on Cytochrome P450 1A1 [6] was > 20 µM in each case. In addition, the IC50 is 15 µM against Cytochrome P450 1B1 [7], > 20 µM at Cytochrome P450 3A4 [8], 17.6 µM on Cytochrome P450 1A1 [9] and > 20 µM against Cytochrome P450 3A4 [10].
Consider `CC(C)=CCc1cc(C2Oc3c(ccc(O)c3CC=C(C)C)C(=O)C2O)ccc1O` (configuration not stated), for which the values for the inhibition at 10 µM on CYP1B1 and at CYP1A1 were 7.5% and 31.4%, respectively.
Regarding `COc1ccc(C2COc3c(ccc4c3C=CC(C)(C)O4)C2)c(O)c1` (configuration not stated), the inhibition at 10 µM on CYP1B1 came out at 12%; on CYP1A1 it was 29.6%.
With `O=C(/C=C/c1ccc(O[C@H]2O[C@@H](CO)[C@H](O)[C@@H](O)[C@@H]2O[C@@H]2OC[C@](O)(CO)[C@H]2O)cc1)c1ccc(O)cc1O`, the inhibition at 10 µM against CYP1B1 was -9.5%; at CYP1A1 it was 11.4%.
With `COc1ccc2c(c1)OC1c3ccc(O)cc3OCC21` (configuration not stated), the figures for the inhibition at 10 µM against CYP1B1 and at CYP1A1 were 31.7% and 27.5%, respectively.
On to `O=c1cc(-c2ccccc2)oc2c1ccc1ccccc12` [ALPHA-NAPHTHOFLAVONE], for which the inhibition at 10 µM on CYP1A1 worked out at 97%.
`CC1(C)[C@@H](O)CC[C@]2(C)[C@H]3C(=O)C=C4[C@@H]5C[C@@](C)(C(=O)O)CC[C@]5(C)CC[C@@]4(C)[C@]3(C)CC[C@@H]12` [ENOXOLONE]: the inhibition at 10 µM on CYP1B1 was -2.1%; at CYP1A1 it was 11.4%.
Regarding `COc1ccc(-c2coc3cc(O)ccc3c2=O)cc1` [FORMONONETIN], the results for the inhibition at 10 µM at CYP1B1 and on CYP1A1 were -1.3% and 10.8%, respectively.
Take `CC1(C)C=Cc2c(ccc3c2OC[C@@H](c2ccc(O)cc2O)C3)O1` [GLABRIDIN]: the inhibition at 10 µM against CYP1B1 is 26.6%; on CYP1A1, 36.8%.
With `CC1(C)[C@@H](O[C@H]2O[C@H](C(=O)O)[C@@H](O)[C@H](O)[C@H]2O[C@@H]2O[C@H](C(=O)O)[C@@H](O)[C@H](O)[C@H]2O)CC[C@]2(C)[C@H]3C(=O)C=C4[C@@H]5C[C@@](C)(C(=O)O)CC[C@]5(C)CC[C@@]4(C)[C@]3(C)CC[C@@H]12` [GLYCYRRHIZIN], the values for the inhibition at 10 µM against CYP1B1 and at CYP1A1 were 10.5% and 39%, respectively.
For `O=C(/C=C/c1ccc(O)cc1)c1ccc(O)cc1O` [ISOLIQUIRITIGENIN], the inhibition at 10 µM against CYP1B1 is 3.1%; on CYP1A1 it was 22.3%.
The matching figures for `O=C1C[C@@H](c2ccc(O)cc2)Oc2cc(O)ccc21` [LIQUIRTIGENIN]: 38.2% and 19.2%.
Take `O=c1c(O)c(-c2ccc(O)c(O)c2)oc2cc(O)cc(O)c12` [QUERCETIN]: the inhibition at 10 µM at CYP1B1 was 67.2%; on CYP1A1, 31.5%. For the same compound, the IC50 on Cytochrome P450 2D6 [2] and against Cytochrome P450 2D6 [5] was > 20 µM in each case.
